Our source for the relative viability values is the supplement of paper PMC10307832.

What all share (experiment): relative viability (nuclei count vs DMSO), 5 days (fraction); higher = more cells survive
Compound in test [1]: O=C(Nc1cc(C(F)(F)F)cc(C(F)(F)F)c1)c1cc(Cl)ccc1O [IMD-0354] + Cc1cc(Nc2cc(N3CCN(C)CC3)nc(Sc3ccc(NC(=O)C4CC4)cc3)n2)n[nH]1 [Tozasertib] (partner 0.1 µM)
An outline of the steps:
(§1)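 Cells from lung cancer lines were seeded into 1536-well plates and, one day later, dosed by pin tool. Treatments were either a single drug or a fixed dose of an anchor drug with five library-drug doses (not always all listed) in √10 steps. After 5 days, nuclei were stained in a one-step fixation (final 0.05% Triton X-100, 1% formaldehyde, 1 ug/ml Hoechst) and counted on 4× images, and relative viability is the treated-to-vehicle nuclei ratio, as the median of duplicate plates.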

Compound in test [2]: O=C(Nc1cc(C(F)(F)F)cc(C(F)(F)F)c1)c1cc(Cl)ccc1O [IMD-0354] + CC(C)C[C@H](NC(=O)[C@H](Cc1ccccc1)NC(=O)c1cnccn1)B(O)O [Bortezomib] (partner 0.002 µM)
An outline of the steps: as §1

Compound in test [3]: Cc1cnc(CNC(=O)c2c(=O)c3ccc(N4CCCN(C)CC4)nc3n3c2sc2ccccc23)cn1 [CX-5461] + Cc1nc(Nc2ncc(C(=O)Nc3c(C)cccc3Cl)s2)cc(N2CCN(CCO)CC2)n1 [Dasatinib] (partner 0.075 µM)
An outline of the steps: as §1

Compound in test [4]: O=C(Nc1cc(C(F)(F)F)cc(C(F)(F)F)c1)c1cc(Cl)ccc1O [IMD-0354] + Nc1nc2[nH]cc(CCc3ccc(C(=O)N[C@@H](CCC(=O)O)C(=O)O)cc3)c2c(=O)[nH]1 [Pemetrexed] (partner 0.2 µM)
An outline of the steps:
as §1

NCI-H3122: the relative viability in test [1] (first compound 0.04 µM) worked out at 0.468; in test [1] (first compound 0.1265 µM), 0.421; in test [1] (first compound 0.4 µM), 0.248; in test [1] (first compound 1.265 µM) it was 0.139; in test [1] (first compound 4 µM), 0.119; in test [2] (first compound 0.04 µM) it was 0.975. Besides, the relative viability in test [2] (first compound 0.1265 µM) is 1.06; in test [2] (first compound 0.4 µM), 0.927; in test [2] (first compound 1.265 µM) it was 0.231; in test [2] (first compound 4 µM), 0.172; in test [3] (first compound 0.01 µM), 0.821; in test [3] (first compound 0.03162 µM) it was 0.942. Also, the relative viability came to 0.828 in test [3] (first compound 0.1 µM); 0.824 in test [3] (first compound 0.3162 µM); 0.346 in test [3] (first compound 1 µM); 0.196 in test [4] (first compound 0.04 µM); 0.211 in test [4] (first compound 0.1265 µM); 0.18 in test [4] (first compound 0.4 µM). In addition, the relative viability in test [4] (first compound 1.265 µM) stood at 0.281; in test [4] (first compound 4 µM) it was 0.15.

In the case of PC-3 [JPC-3], the relative viability in test [1] (first compound 0.04 µM) was 1; in test [1] (first compound 0.1265 µM) it was 0.707; in test [1] (first compound 0.4 µM), 0.572; in test [1] (first compound 1.265 µM), 0.567; in test [1] (first compound 4 µM), 0.312; in test [2] (first compound 0.04 µM), 0.928. For the same cell line, the relative viability in test [2] (first compound 0.1265 µM) stood at 0.912; in test [2] (first compound 0.4 µM) it was 0.534; in test [2] (first compound 1.265 µM) it was 0.636; in test [2] (first compound 4 µM), 0.312; in test [3] (first compound 0.01 µM), 0.967; in test [3] (first compound 0.03162 µM) it was 1.09. In addition, the relative viability in test [3] (first compound 0.1 µM) stood at 1.01; in test [3] (first compound 0.3162 µM), 1.04; in test [3] (first compound 1 µM), 0.972; in test [4] (first compound 0.04 µM), 1.42; in test [4] (first compound 0.1265 µM), 1; in test [4] (first compound 0.4 µM), 1.03. Further, the values for the relative viability in test [4] (first compound 1.265 µM) and in test [4] (first compound 4 µM) were 0.305 and 0.405, respectively.

Turning to PC-14, the relative viability was found to be 0.675 in test [1] (first compound 0.04 µM); 0.61 in test [1] (first compound 0.1265 µM); 0.353 in test [1] (first compound 0.4 µM); 0.312 in test [1] (first compound 1.265 µM); 0.076 in test [1] (first compound 4 µM); 1.12 in test [2] (first compound 0.04 µM). Besides, the relative viability in test [2] (first compound 0.1265 µM) was 0.802; in test [2] (first compound 0.4 µM), 0.354; in test [2] (first compound 1.265 µM), 0.443; in test [2] (first compound 4 µM), 0.114; in test [3] (first compound 0.01 µM) it was 0.312; in test [3] (first compound 0.03162 µM), 0.251. Besides, the relative viability was determined as 0.295 in test [3] (first compound 0.1 µM); 0.272 in test [3] (first compound 0.3162 µM); 0.0972 in test [3] (first compound 1 µM); 0.128 in test [4] (first compound 0.04 µM); 0.116 in test [4] (first compound 0.1265 µM); 0.105 in test [4] (first compound 0.4 µM). Also, the relative viability in test [4] (first compound 1.265 µM) came out at 0.14; in test [4] (first compound 4 µM), 0.0524.

RERF-LC-KJ: the relative viability in test [1] (first compound 0.04 µM) stood at 0.565; in test [1] (first compound 0.1265 µM), 0.644; in test [1] (first compound 0.4 µM) it was 0.411; in test [1] (first compound 1.265 µM), 0.274; in test [1] (first compound 4 µM) it was 0.265; in test [2] (first compound 0.04 µM), 1.15. The relative viability in test [2] (first compound 0.1265 µM) amounted to 1.17; in test [2] (first compound 0.4 µM) it was 0.875; in test [2] (first compound 1.265 µM), 0.489; in test [2] (first compound 4 µM) it was 0.254; in test [3] (first compound 0.01 µM), 0.913; in test [3] (first compound 0.03162 µM), 0.94. Also, the relative viability in test [3] (first compound 0.1 µM) was determined as 0.809; in test [3] (first compound 0.3162 µM), 0.924; in test [3] (first compound 1 µM), 0.522; in test [4] (first compound 0.04 µM), 0.536; in test [4] (first compound 0.1265 µM) it was 0.462; in test [4] (first compound 0.4 µM), 0.376. Besides, the relative viability in test [4] (first compound 1.265 µM) was determined as 0.126; in test [4] (first compound 4 µM) it was 0.153.

Turning to SK-LU-1, the relative viability in test [1] (first compound 0.04 µM) was 0.308; in test [1] (first compound 0.1265 µM) it was 0.349; in test [1] (first compound 0.4 µM), 0.304; in test [1] (first compound 1.265 µM) it was 0.2; in test [1] (first compound 4 µM), 0.189; in test [2] (first compound 0.04 µM) it was 1.17. For the same cell line, the relative viability stood at 1.1 in test [2] (first compound 0.1265 µM); 0.645 in test [2] (first compound 0.4 µM); 0.418 in test [2] (first compound 1.265 µM); 0.304 in test [2] (first compound 4 µM); 0.178 in test [3] (first compound 0.01 µM); 0.159 in test [3] (first compound 0.03162 µM). Also, the relative viability in test [3] (first compound 0.1 µM) was determined as 0.142; in test [3] (first compound 1 µM), 0.102; in test [4] (first compound 0.04 µM), 1.11; in test [4] (first compound 0.1265 µM), 0.777; in test [4] (first compound 0.4 µM) it was 0.44; in test [4] (first compound 1.265 µM), 0.225. Further, in test [4] (first compound 4 µM), the relative viability is 0.249.

As to SW 1573, the relative viability was determined as 0.182 in test [1] (first compound 0.04 µM); 0.16 in test [1] (first compound 0.1265 µM); 0.175 in test [1] (first compound 0.4 µM); 0.0971 in test [1] (first compound 1.265 µM); 0.0737 in test [1] (first compound 4 µM); 1.38 in test [2] (first compound 0.04 µM). For the same cell line, the relative viability was 0.96 in test [2] (first compound 0.1265 µM); 0.479 in test [2] (first compound 0.4 µM); 0.563 in test [2] (first compound 1.265 µM); 0.132 in test [2] (first compound 4 µM); 0.528 in test [3] (first compound 0.01 µM); 0.396 in test [3] (first compound 0.03162 µM). In addition, the relative viability was found to be 0.302 in test [3] (first compound 0.1 µM); 0.502 in test [3] (first compound 0.3162 µM); 0.17 in test [3] (first compound 1 µM); 0.872 in test [4] (first compound 0.04 µM); 0.799 in test [4] (first compound 0.1265 µM); 0.271 in test [4] (first compound 0.4 µM). In addition, the relative viability in test [4] (first compound 1.265 µM) stood at 0.131; in test [4] (first compound 4 µM) it was 0.0794.
